Test results published in patent US10472346B2, “Potent gamma-secretase modulators” (The General Hospital Coporation, priority 2014, dated 2019).
“Also recorded” adds a separate entry of the source.

Assays:
Notch processing = Notch processing in transfected H4-APP751 cells (Western blot, Myc antibody, NICD); format: cell-based, human; conditions: H4-APP751 cells transfected with the Notch NδED construct, 40 nM, 200 nM, 1000 nM, and 5000 nM, 24 hrs
From the text: Cells were harvested 48 hrs post transfection and applied to Western blotting analysis. Myc antibody was utilized to assess the NAED and NICD tagged with Myc on their N-termini. β-Actin was utilized as the loading control.
Cells were harvested 48 hrs post transfection and subjected to Western blotting analysis. Myc antibody was utilized to assess the NδED and NICD tagged with Myc on their N-termini.
Stable H4 human neuroglioma cells over-expressing human APP751, or H4-APP751 cells, were transfected with the NAE construct, and then treated with different concentrations SGSM Compound 1 (Lanes 1-6) or DAPT (Lanes 7-10) for another 24 hrs and are shown in FIG. 9. Cells were harvested 48 hrs post transfection and applied to Western blotting analysis. Myc antibody was utilized to assess the NAED and NICD tagged with Myc on their N-termini β-Actin was utilized as the loading control.
Stably-transfected H4 human neuroglioma cells over-expressing human APP751 (H4-APP751) cells, were transfected with the Notch NδED construct, and then treated with vehicle, or different doses of GSMs (40 nM, 200 nM, 1000 nM, and 5000 nM) for 24 hrs. Cells were harvested 48 hrs post transfection and subjected to Western blotting analysis.

Aβ42 = Aβ42 IC50 assay (SHSYSY-APP cell-based screening, UCSD sandwich Aβ42 ELISA)
Summary of the method: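 SHSY5Y-APP cells; secreted Aβ42 quantified by sandwich ELISA to give IC50. Each compound run twice in triplicate on sequential days. Values accepted only when the two runs agree within 3-fold.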

IC50 (Aβ42) [nM] | SMILES | Notch processing (NICD levels, Western blot) (Notch processing)
4.3 | COc1nc(-c2cc(C)c(N[C@@H](C)c3ccccc3F)nn2)ccc1-n1cnc(C)c1 [Example 34, (S)—N-(1-(2-fluorophenyl)ethyl)-6-(6-methoxy-5-(4-methyl-1H-imidazol-1-yl)pyridin-2-yl)-4-methylpyridazin-3-amine] | did not decrease the NICD levels at all concentrations studied; also recorded: not inhibit Notch processing
2.5 | COc1nc(-c2cc(C)c(N[C@@H](C)c3ccc(F)cc3F)nn2)ccc1-n1cnc(C)c1 [Example 45, (S)—N-(1-(2,4-difluorophenyl)ethyl)-6-(6-methoxy-5-(4-methyl-1H-imidazol-1-yl)pyridin-2-yl)-4-methylpyridazin-3-amine] | did not decrease the NICD levels at all concentrations studied; also recorded: not inhibit Notch processing
4.1 | COc1nc(-c2cc(C)c(N[C@@H](C)c3cc(F)cc(F)c3)nn2)ccc1-n1cnc(C)c1 [Example 46, (S)—N-(1-(3,5-difluorophenyl)ethyl)-6-(6-methoxy-5-(4-methyl-1H-imidazol-1-yl)pyridin-2-yl)-4-methylpyridazin-3-amine] | did not decrease the NICD levels at all concentrations studied; also recorded: not inhibit Notch processing
